Source: patent US10744137B1, “Liquisolid tablet containing combined dose of tadalafil and dapoxetine” (King Abdulaziz University, priority 2020, dated 2020)
Values after ≈ are worked out from the molar mass of the structure shown. Where two headings read alike, the source gives them in different places.

How the values were obtained:
[1] = DPX, low and variable (El-Say et al., 2019); cited from earlier work
[2] = Solubility studies of TDL and DPX in nonvolatile solvents and distilled water; format: physicochemical
Description: Solubility studies of TDL and DPX were determined in various nonvolatile solvents separately as described previously with full details in the literature (Al-Subaie et al., 2015)(Aldawsari et al., 2018)(El-Say et al., 2019). The solvents used in this study were Span® 80, Tween® 80, PEG 400, PEG 200, Labrasol®, Kolliphor® EL, glycerin and distilled water were used.

solubility ([2]; in distilled water, read-out: Solubility of DPX) [mg/mL] | solubility ([2]; oil or lipid, in Labrasol, read-out: Solubility of DPX) [mg/mL] | solubility ([2]; in distilled water, read-out: Solubility of TDL) [mg/mL] | solubility ([2]; organic solvent or mixture, in PEG 200, read-out: Solubility of TDL) [mg/mL] | Structure (SMILES) | oral bioavailability [1]
35.6 (≈ 117 mM) | 57.7 (≈ 189 mM) | – | – | CN(C)[C@@H](CCOc1cccc2ccccc12)c1ccccc1 [DPX, dapoxetine] | 15-76%
– | – | 0.049 (≈ 0.126 mM) | 10.1 (≈ 25.9 mM) | CN1CC(=O)N2[C@H](c3ccc4c(c3)OCO4)c3[nH]c4ccccc4c3C[C@@H]2C1=O [TDL, tadalafil] | –
